# Test results reported in PubChem BioAssay (NCI).
#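 Exposure lasted 48 hours, with cells grown in 96-well plates and compounds tested at five concentrations. Here, GI50 denotes the concentration required for 50% inhibition of growth. The concentration for full growth arrest is given as TGI.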
# System: UO-31 renal
# Assay: NCI anticancer screen, dose series, 48 h
Structure (SMILES),TGI [µM],GI50 [µM]
O=c1[nH]nc(NNc2ccccc2)c2nnn(C3CCCCC3)c12,> 100,
C=C1/C(=C\C=C2/CCC[C@]3(C)[C@@H]([C@H](C)CCCC(C)(C)O)CC[C@@H]23)C[C@@H](OC(=O)CBr)C[C@@H]1O,0.292,0.155
COc1ccc(-n2c(=O)[nH]n(C(C)=O)c2=O)cc1,> 100,
O=C(c1ccc(Cl)cc1)N(C(=O)N1CCC(c2ccccc2)CC1)c1ccccc1,98.7,

# System: SNB-19 CNS
# Assay: NCI anticancer screen, dose series, 48 h
Structure (SMILES),TGI [µM],GI50 [µM]
COc1ccc2c3c1O[C@H]1C(OC)C=CC4C(C2)N(Cc2cccs2)CCC341 (some centres not stated),> 100,
Nc1nc(SCCc2ccccc2)nc2nc3c(c(-c4ccccc4)c12)CCCC3,> 100,
C=CCOC(=O)NC1C(OC(C)[C@@H](NC(=O)OCc2ccccc2)C(=O)OC(C)(C)C)OC(COC(C)=O)C(OC(C)=O)C1OC(C)=O (some centres not stated),> 100,
O=c1[nH]nc(NNc2ccccc2)c2nnn(C3CCCCC3)c12,> 100,
C=C1/C(=C\C=C2/CCC[C@]3(C)[C@@H]([C@H](C)CCCC(C)(C)O)CC[C@@H]23)C[C@@H](OC(=O)CBr)C[C@@H]1O,24.9,11.2
COc1ccc(-n2c(=O)[nH]n(C(C)=O)c2=O)cc1,> 100,
O=C(c1ccc(Cl)cc1)N(C(=O)N1CCC(c2ccccc2)CC1)c1ccccc1,> 100,

# System: IGROV1 ovarian
# Assay: NCI anticancer screen, dose series, 48 h
Structure (SMILES),TGI [µM],GI50 [µM]
COc1ccc2c3c1O[C@H]1C(OC)C=CC4C(C2)N(Cc2cccs2)CCC341 (some centres not stated),> 100,
Nc1nc(SCCc2ccccc2)nc2nc3c(c(-c4ccccc4)c12)CCCC3,> 100,
C=CCOC(=O)NC1C(OC(C)[C@@H](NC(=O)OCc2ccccc2)C(=O)OC(C)(C)C)OC(COC(C)=O)C(OC(C)=O)C1OC(C)=O (some centres not stated),> 100,
C=C1/C(=C\C=C2/CCC[C@]3(C)[C@@H]([C@H](C)CCCC(C)(C)O)CC[C@@H]23)C[C@@H](OC(=O)CBr)C[C@@H]1O,0.15,0.0604
COc1ccc(-n2c(=O)[nH]n(C(C)=O)c2=O)cc1,> 100,
O=C(c1ccc(Cl)cc1)N(C(=O)N1CCC(c2ccccc2)CC1)c1ccccc1,> 100,

# System: EKVX NSCLC
# Assay: NCI anticancer screen, dose series, 48 h
Structure (SMILES),TGI [µM],GI50 [µM]
COc1ccc2c3c1O[C@H]1C(OC)C=CC4C(C2)N(Cc2cccs2)CCC341 (some centres not stated),> 100,
Nc1nc(SCCc2ccccc2)nc2nc3c(c(-c4ccccc4)c12)CCCC3,> 100,
C=CCOC(=O)NC1C(OC(C)[C@@H](NC(=O)OCc2ccccc2)C(=O)OC(C)(C)C)OC(COC(C)=O)C(OC(C)=O)C1OC(C)=O (some centres not stated),> 100,
O=c1[nH]nc(NNc2ccccc2)c2nnn(C3CCCCC3)c12,> 100,
C=C1/C(=C\C=C2/CCC[C@]3(C)[C@@H]([C@H](C)CCCC(C)(C)O)CC[C@@H]23)C[C@@H](OC(=O)CBr)C[C@@H]1O,19.5,3.17
COc1ccc(-n2c(=O)[nH]n(C(C)=O)c2=O)cc1,> 100,
O=C(c1ccc(Cl)cc1)N(C(=O)N1CCC(c2ccccc2)CC1)c1ccccc1,69,

# System: HS 578T breast
# Assay: NCI anticancer screen, dose series, 48 h
Structure (SMILES),TGI [µM],GI50 [µM]
COc1ccc2c3c1O[C@H]1C(OC)C=CC4C(C2)N(Cc2cccs2)CCC341 (some centres not stated),> 100,
Nc1nc(SCCc2ccccc2)nc2nc3c(c(-c4ccccc4)c12)CCCC3,64.7,
C=CCOC(=O)NC1C(OC(C)[C@@H](NC(=O)OCc2ccccc2)C(=O)OC(C)(C)C)OC(COC(C)=O)C(OC(C)=O)C1OC(C)=O (some centres not stated),> 100,
C=C1/C(=C\C=C2/CCC[C@]3(C)[C@@H]([C@H](C)CCCC(C)(C)O)CC[C@@H]23)C[C@@H](OC(=O)CBr)C[C@@H]1O,8.12,1.79
COc1ccc(-n2c(=O)[nH]n(C(C)=O)c2=O)cc1,> 100,
O=C(c1ccc(Cl)cc1)N(C(=O)N1CCC(c2ccccc2)CC1)c1ccccc1,> 100,

# System: PC-3 prostate
# Assay: NCI anticancer screen, dose series, 48 h
Structure (SMILES),TGI [µM],GI50 [µM]
Nc1nc(SCCc2ccccc2)nc2nc3c(c(-c4ccccc4)c12)CCCC3,> 100,
C=CCOC(=O)NC1C(OC(C)[C@@H](NC(=O)OCc2ccccc2)C(=O)OC(C)(C)C)OC(COC(C)=O)C(OC(C)=O)C1OC(C)=O (some centres not stated),> 100,
O=c1[nH]nc(NNc2ccccc2)c2nnn(C3CCCCC3)c12,> 100,
C=C1/C(=C\C=C2/CCC[C@]3(C)[C@@H]([C@H](C)CCCC(C)(C)O)CC[C@@H]23)C[C@@H](OC(=O)CBr)C[C@@H]1O,5.88,1.11
COc1ccc(-n2c(=O)[nH]n(C(C)=O)c2=O)cc1,> 100,
O=C(c1ccc(Cl)cc1)N(C(=O)N1CCC(c2ccccc2)CC1)c1ccccc1,73.8,

# System: ACHN renal
# Assay: NCI anticancer screen, dose series, 48 h
Structure (SMILES),TGI [µM],GI50 [µM]
Nc1nc(SCCc2ccccc2)nc2nc3c(c(-c4ccccc4)c12)CCCC3,> 100,
C=CCOC(=O)NC1C(OC(C)[C@@H](NC(=O)OCc2ccccc2)C(=O)OC(C)(C)C)OC(COC(C)=O)C(OC(C)=O)C1OC(C)=O (some centres not stated),> 100,
O=c1[nH]nc(NNc2ccccc2)c2nnn(C3CCCCC3)c12,> 100,
C=C1/C(=C\C=C2/CCC[C@]3(C)[C@@H]([C@H](C)CCCC(C)(C)O)CC[C@@H]23)C[C@@H](OC(=O)CBr)C[C@@H]1O,5.13,0.709
COc1ccc(-n2c(=O)[nH]n(C(C)=O)c2=O)cc1,> 100,
O=C(c1ccc(Cl)cc1)N(C(=O)N1CCC(c2ccccc2)CC1)c1ccccc1,> 100,

# System: HOP-62 NSCLC
# Assay: NCI anticancer screen, dose series, 48 h
Structure (SMILES),TGI [µM],GI50 [µM]
COc1ccc2c3c1O[C@H]1C(OC)C=CC4C(C2)N(Cc2cccs2)CCC341 (some centres not stated),> 100,
Nc1nc(SCCc2ccccc2)nc2nc3c(c(-c4ccccc4)c12)CCCC3,> 100,
C=CCOC(=O)NC1C(OC(C)[C@@H](NC(=O)OCc2ccccc2)C(=O)OC(C)(C)C)OC(COC(C)=O)C(OC(C)=O)C1OC(C)=O (some centres not stated),> 100,
O=c1[nH]nc(NNc2ccccc2)c2nnn(C3CCCCC3)c12,> 100,
C=C1/C(=C\C=C2/CCC[C@]3(C)[C@@H]([C@H](C)CCCC(C)(C)O)CC[C@@H]23)C[C@@H](OC(=O)CBr)C[C@@H]1O,30.5,12.9

# System: A498 renal
# Assay: NCI anticancer screen, dose series, 48 h
Structure (SMILES),TGI [µM],GI50 [µM]
C=CCOC(=O)NC1C(OC(C)[C@@H](NC(=O)OCc2ccccc2)C(=O)OC(C)(C)C)OC(COC(C)=O)C(OC(C)=O)C1OC(C)=O (some centres not stated),> 100,
C=C1/C(=C\C=C2/CCC[C@]3(C)[C@@H]([C@H](C)CCCC(C)(C)O)CC[C@@H]23)C[C@@H](OC(=O)CBr)C[C@@H]1O,3.17,0.469
COc1ccc(-n2c(=O)[nH]n(C(C)=O)c2=O)cc1,> 100,
O=C(c1ccc(Cl)cc1)N(C(=O)N1CCC(c2ccccc2)CC1)c1ccccc1,96.5,

# System: U251 CNS
# Assay: NCI anticancer screen, dose series, 48 h
Structure (SMILES),TGI [µM],GI50 [µM]
Nc1nc(SCCc2ccccc2)nc2nc3c(c(-c4ccccc4)c12)CCCC3,> 100,
C=CCOC(=O)NC1C(OC(C)[C@@H](NC(=O)OCc2ccccc2)C(=O)OC(C)(C)C)OC(COC(C)=O)C(OC(C)=O)C1OC(C)=O (some centres not stated),> 100,
O=c1[nH]nc(NNc2ccccc2)c2nnn(C3CCCCC3)c12,> 100,
C=C1/C(=C\C=C2/CCC[C@]3(C)[C@@H]([C@H](C)CCCC(C)(C)O)CC[C@@H]23)C[C@@H](OC(=O)CBr)C[C@@H]1O,18.8,4.51
COc1ccc(-n2c(=O)[nH]n(C(C)=O)c2=O)cc1,> 100,
O=C(c1ccc(Cl)cc1)N(C(=O)N1CCC(c2ccccc2)CC1)c1ccccc1,> 100,

# System: MDA-MB-231 breast
# Assay: NCI anticancer screen, dose series, 48 h
Structure (SMILES),TGI [µM],GI50 [µM]
Nc1nc(SCCc2ccccc2)nc2nc3c(c(-c4ccccc4)c12)CCCC3,> 100,
C=CCOC(=O)NC1C(OC(C)[C@@H](NC(=O)OCc2ccccc2)C(=O)OC(C)(C)C)OC(COC(C)=O)C(OC(C)=O)C1OC(C)=O (some centres not stated),96.2,
O=c1[nH]nc(NNc2ccccc2)c2nnn(C3CCCCC3)c12,> 100,
C=C1/C(=C\C=C2/CCC[C@]3(C)[C@@H]([C@H](C)CCCC(C)(C)O)CC[C@@H]23)C[C@@H](OC(=O)CBr)C[C@@H]1O,5.4,1.39
COc1ccc(-n2c(=O)[nH]n(C(C)=O)c2=O)cc1,> 100,
O=C(c1ccc(Cl)cc1)N(C(=O)N1CCC(c2ccccc2)CC1)c1ccccc1,> 100,

# System: HCT-15 colon
# Assay: NCI anticancer screen, dose series, 48 h
Structure (SMILES),TGI [µM],GI50 [µM]
COc1ccc2c3c1O[C@H]1C(OC)C=CC4C(C2)N(Cc2cccs2)CCC341 (some centres not stated),> 100,
Nc1nc(SCCc2ccccc2)nc2nc3c(c(-c4ccccc4)c12)CCCC3,> 100,
C=CCOC(=O)NC1C(OC(C)[C@@H](NC(=O)OCc2ccccc2)C(=O)OC(C)(C)C)OC(COC(C)=O)C(OC(C)=O)C1OC(C)=O (some centres not stated),> 100,
O=c1[nH]nc(NNc2ccccc2)c2nnn(C3CCCCC3)c12,> 100,
C=C1/C(=C\C=C2/CCC[C@]3(C)[C@@H]([C@H](C)CCCC(C)(C)O)CC[C@@H]23)C[C@@H](OC(=O)CBr)C[C@@H]1O,3.31,1.48
COc1ccc(-n2c(=O)[nH]n(C(C)=O)c2=O)cc1,> 100,
O=C(c1ccc(Cl)cc1)N(C(=O)N1CCC(c2ccccc2)CC1)c1ccccc1,> 100,

# System: MDA-N
# Assay: NCI anticancer screen, dose series, 48 h
row,Structure (SMILES),TGI [µM]
1,COc1ccc2c3c1O[C@H]1C(OC)C=CC4C(C2)N(Cc2cccs2)CCC341 (some centres not stated),> 100
2,Nc1nc(SCCc2ccccc2)nc2nc3c(c(-c4ccccc4)c12)CCCC3,> 100
3,C=CCOC(=O)NC1C(OC(C)[C@@H](NC(=O)OCc2ccccc2)C(=O)OC(C)(C)C)OC(COC(C)=O)C(OC(C)=O)C1OC(C)=O (some centres not stated),> 100
4,O=c1[nH]nc(NNc2ccccc2)c2nnn(C3CCCCC3)c12,> 100
5,COc1ccc(-n2c(=O)[nH]n(C(C)=O)c2=O)cc1,> 100
6,O=C(c1ccc(Cl)cc1)N(C(=O)N1CCC(c2ccccc2)CC1)c1ccccc1,> 100

# System: COLO 205 colon
# Assay: NCI anticancer screen, dose series, 48 h
Structure (SMILES),TGI [µM],GI50 [µM]
Nc1nc(SCCc2ccccc2)nc2nc3c(c(-c4ccccc4)c12)CCCC3,> 100,
C=CCOC(=O)NC1C(OC(C)[C@@H](NC(=O)OCc2ccccc2)C(=O)OC(C)(C)C)OC(COC(C)=O)C(OC(C)=O)C1OC(C)=O (some centres not stated),> 100,
O=c1[nH]nc(NNc2ccccc2)c2nnn(C3CCCCC3)c12,> 100,
C=C1/C(=C\C=C2/CCC[C@]3(C)[C@@H]([C@H](C)CCCC(C)(C)O)CC[C@@H]23)C[C@@H](OC(=O)CBr)C[C@@H]1O,19.6,2.58
COc1ccc(-n2c(=O)[nH]n(C(C)=O)c2=O)cc1,> 100,
O=C(c1ccc(Cl)cc1)N(C(=O)N1CCC(c2ccccc2)CC1)c1ccccc1,> 100,

# System: HCT-116 colon
# Assay: NCI anticancer screen, dose series, 48 h
Structure (SMILES),TGI [µM],GI50 [µM]
COc1ccc2c3c1O[C@H]1C(OC)C=CC4C(C2)N(Cc2cccs2)CCC341 (some centres not stated),> 100,
C=CCOC(=O)NC1C(OC(C)[C@@H](NC(=O)OCc2ccccc2)C(=O)OC(C)(C)C)OC(COC(C)=O)C(OC(C)=O)C1OC(C)=O (some centres not stated),> 100,
O=c1[nH]nc(NNc2ccccc2)c2nnn(C3CCCCC3)c12,> 100,
C=C1/C(=C\C=C2/CCC[C@]3(C)[C@@H]([C@H](C)CCCC(C)(C)O)CC[C@@H]23)C[C@@H](OC(=O)CBr)C[C@@H]1O,5.9,2.22
COc1ccc(-n2c(=O)[nH]n(C(C)=O)c2=O)cc1,> 100,
O=C(c1ccc(Cl)cc1)N(C(=O)N1CCC(c2ccccc2)CC1)c1ccccc1,> 100,
